# Patent publication US20240100065A1, “METHODS FOR TREATING RECEPTOR-INTERACTING PROTEIN KINASE 1-MEDIATED DISEASES” (Genzyme Corporation, priority 2022, published 2024)
# Where two headings read alike, the source gives them in different places.
# Test: Plasma pharmacokinetics after single and repeated oral doses
# Type: in vivo, healthy adult participants (human)
# Settings: for Time to steady state (Tss), 50% median, point estimate / Time to steady state (Tss), 90% quantile, point estimate: overall; for AUC / AUC(0-t) / Cmax / Tmax / Vd/F: human, plasma, oral; for Vd/F: read-out: Vz/F, mean
# Protocol: In Part 1a, plasma samples were collected before dosing and at 10 post-dose timepoints on Day 1 (30 minutes, 1 hour, followed by every hour until 6 hours, and then every 2 hours until 12 hours), and single samples on Day 2 (at 24 hours) and Day 3 (at 48 hours). In Part 1b, timepoints included at least pre-dose and at 10 post-dose timepoints, including plasma sampling at the same time of CSF sampling. In Part 2, on Day 1 and Day 14, plasma samples were collected at pre-dose and at 10 to 11 post-dose timepoints. In addition, plasma samples were collected on Days 2, 3, 5, 7, 11, 15, 16, and 17.
# PK population included all participants exposed to Compound 1 with no major or critical deviations related to Compound 1 and for whom PK data were considered sufficient and interpretable. PK parameters were summarized by descriptive statistics for each dose level group. Distribution of Tmax values was represented by histogram plots for each dose level group. In Part 1a, dose proportionality was assessed using a linear model on Cmax, AUClast and AUC. In Part 2, all PK analyses were performed separately for each regimen (OD and BID). Steady state was assessed on Ctrough using a non-linear model. Accumulation was assessed using a linear model on log-transformed accumulation ratio. Dose proportionality was assessed using a power model on Cmax and AUCtau on Day 1 and Day 14, separately. Variance components of log-transformed Cmax and AUCtau were estimated using a linear model. In Part 1b, CSF concentration was described by dose level group and CSF to plasma unbound concentration ratios calculated were described in the same way. 4β-hydroxycholesterol on Day 14 versus Day 1 pre-dose concentration ratios were summarized using descriptive statistics by dose level group and point estimates with 90% confidence interval (90% CI) for the geometric mean of the log-transformed Day14/Day1 ratio was calculated in Part 2.
# [1] = Part 2, cohorts at 10 and 20 mg QD
# [2] = Part 2, cohorts at 15 and 20 mg BID
# [3] = Part 2 Day 1, 10 mg QD, tau 24 hours
# [4] = Part 2 Day 1, 15 mg BID, fasted
# [5] = Part 2 Day 1, 20 mg BID, fasted
# [6] = Part 2 Day 1, 20 mg BID, tau 12 hours
# [7] = Part 2 Day 14 steady state, 10 mg QD
# [8] = Part 2 Day 14 steady state, 15 mg BID
# [9] = Part 2 Day 14 steady state, 20 mg BID
# [10] = Part 2 Day 14 steady state, 20 mg QD
# [11] = Part 2 Day 14 steady state, 20 mg QD, tau 24 hours
structure (smiles),measurement,setting,value
"CC(C)(C(=O)N1CCOc2c(C#N)cncc2C1)C(F)F [Compound 1, 4-(3,3-difluoro-2,2-dimethyl-propanoyl)-3,5-dihydro-2H-pyrido[3,4-f] [1,4]oxazepine-9-carbonitrile]","Time to steady state (Tss), 50% median, point estimate",[1],1.81 days
same,"Time to steady state (Tss), 90% quantile, point estimate",[1],2.45 days
same,"Time to steady state (Tss), 50% median, point estimate",[2],1.43 days
same,"Time to steady state (Tss), 90% quantile, point estimate",[2],1.65 days
same,"Cmax, Gmean","Part 2 Day 1, 10 mg QD, fasted",(157) [20.7] ng/mL
same,"Tmax, median","Part 2 Day 1, 10 mg QD, fasted",1.00 h
same,"AUCtau, Gmean",[3],(1080) h*ng/ml
same,"AUCtau, mean ± SD",[3],1110 ± 268 ng·h/mL
same,"Cmax, Gmean",[4],(211) [44.2] ng/mL
same,"Tmax, median",[4],1.00 h
same,"AUCtau, Gmean","Part 2 Day 1, 15 mg BID, tau 12 hours",(1100) [33.1] h*ng/ml
same,"Cmax, Gmean",[5],(205) [20.3] ng/mL
same,"Cmax, mean ± SD",[5],209 ± 42.4 ng/mL
same,"Tmax, median",[5],2.00 h
same,"AUCtau, Gmean",[6],(1350) h*ng/ml
same,"AUCtau, mean ± SD",[6],1370 ± 252 ng·h/mL
same,"Cmax, Gmean","Part 2 Day 1, 20 mg QD, fasted",(240) [20.2] ng/mL
same,"Tmax, median","Part 2 Day 1, 20 mg QD, fasted",1.50 h
same,"AUCtau, Gmean","Part 2 Day 1, 20 mg QD, tau 24 hours",(1860) [22.5 h*ng/ml
same,"CLSS/F, Gmean","Part 2 Day 14, 10 mg QD",(7.08) [25.9] L/h
same,"CLSS/F, mean ± SD","Part 2 Day 14, 10 mg QD",7.30 ± 1.89 L/h
same,"Ctrough, Gmean","Part 2 Day 14, 10 mg QD",(19.9) [57.0] ng/mL
same,"Ctrough, mean ± SD","Part 2 Day 14, 10 mg QD",22.8 ± 13.0 ng/mL
same,"T1/2z, Gmean","Part 2 Day 14, 10 mg QD",(8.87) [23.2] h
same,"T1/2z, mean ± SD","Part 2 Day 14, 10 mg QD",9.07 ± 2.11 h
same,"CLSS/F, Gmean","Part 2 Day 14, 15 mg BID",(9.16) [30.0] L/h
same,"CLSS/F, mean ± SD","Part 2 Day 14, 15 mg BID",9.54 ± 2.86 L/h
same,"Ctrough, Gmean","Part 2 Day 14, 15 mg BID",(79.3) [33.0] ng/mL
same,"Ctrough, mean ± SD","Part 2 Day 14, 15 mg BID",83.7 ± 27.4 ng/mL
same,"T1/2z, Gmean","Part 2 Day 14, 15 mg BID",(7.21) [15.6] h
same,"T1/2z, mean ± SD","Part 2 Day 14, 15 mg BID",7.29 ± 1.14 h
same,"CLSS/F, Gmean","Part 2 Day 14, 20 mg BID",(9.27) [24.9] L/h
same,"CLSS/F, mean ± SD","Part 2 Day 14, 20 mg BID",9.53 ± 2.37 L/h
same,"Ctrough, Gmean","Part 2 Day 14, 20 mg BID",(99.3) [40.0] ng/mL
same,"Ctrough, mean ± SD","Part 2 Day 14, 20 mg BID",107 ± 42.7 ng/mL
same,"T1/2z, Gmean","Part 2 Day 14, 20 mg BID",(7.37) [23.0] h
same,"T1/2z, mean ± SD","Part 2 Day 14, 20 mg BID",7.54 ± 1.74 h
same,"CLSS/F, Gmean","Part 2 Day 14, 20 mg QD",(9.40) [22.2] L/h
same,"CLSS/F, mean ± SD","Part 2 Day 14, 20 mg QD",9.60 ± 2.14 L/h
same,"Ctrough, Gmean","Part 2 Day 14, 20 mg QD",(30.4) [49.0] ng/mL
same,"Ctrough, mean ± SD","Part 2 Day 14, 20 mg QD",34.2 ± 16.6 ng/mL
same,"T1/2z, Gmean","Part 2 Day 14, 20 mg QD",(8.53) [19.0] h
same,"T1/2z, mean ± SD","Part 2 Day 14, 20 mg QD",8.68 ± 1.65 h
same,"Cmax, Gmean",[7],(158) [31.9] ng/mL
same,"Tmax, median",[7],1.00 h
same,"AUCtau, Gmean","Part 2 Day 14 steady state, 10 mg QD, tau 24 hours",(1410) [27.4] h*ng/mL
same,"Cmax, Gmean",[8],(268) [36.3] ng/mL
same,"Tmax, median",[8],1.00 h
same,"AUCtau, Gmean","Part 2 Day 14 steady state, 15 mg BID, tau 12 hours",(1640) [32.5] h*ng/mL
same,"Cmax, Gmean",[9],(353) [19.9] ng/mL
same,"Tmax, median",[9],1.00 h
same,"AUCtau, Gmean","Part 2 Day 14 steady state, 20 mg BID, tau 12 hours",(2160) [25.9] h*ng/mL
same,"Cmax, Gmean",[10],(250) [22.7] ng/mL
same,"Tmax, median",[10],2.00 h
same,"AUCtau, Gmean",[11],(2130) [21.4] h*ng/mL
same,"AUCtau, mean ± SD",[11],2170 ± 465 ng·h/mL
same,"Accumulation ratio (AUC0-24h), Day 14/Day 1",Pooled doses QD,~1.22
same,Within-subject variability for AUCtau,QD cohorts,8.0%
same,Within-subject variability for Cmax,QD cohorts,15.8%
same,Total variability for AUCtau,QD dosing regimen,21.6%
same,Total variability for Cmax,QD dosing regimen,20.6%
same,AUC,"10 mg, Part 1a single 10 mg fasted, read-out: AUC, mean",1250 ng·h/mL
same,AUC(0-t),"10 mg, Part 1a single 10 mg fasted, read-out: AUClast, mean",1200 ng·h/mL
same,Cmax,"10 mg, Part 1a single 10 mg fasted, read-out: Cmax, mean",119 ng/mL
same,AUC,"10 mg, Part 1b single 10 mg fed, read-out: AUC, mean",1460 ng·h/mL
same,AUC(0-t),"10 mg, Part 1b single 10 mg fed, read-out: AUClast, mean",1220 ng·h/mL
same,Cmax,"10 mg, Part 2 Day 1, 10 mg QD, fasted, read-out: Cmax, mean ± SD",161 ± 33.2 ng/mL
same,AUC,"10 mg, Part 2 Day 14 steady state, 10 mg QD, tau 24 hours, read-out: AUCtau, mean ± SD",1460 ± 399 ng·h/mL
same,Cmax,"10 mg, Part 2 Day 14 steady state, 10 mg QD, read-out: Cmax, mean ± SD",164 ± 52.3 ng/mL
same,Cmax,"15 mg, Part 2 Day 1, 15 mg BID, fasted, read-out: Cmax, mean ± SD",229 ± 101 ng/mL
same,AUC,"15 mg, Part 2 Day 1, 15 mg BID, tau 12 hours, read-out: AUCtau, mean ± SD",1150 ± 380 ng·h/mL
same,AUC,"15 mg, Part 2 Day 14 steady state, 15 mg BID, tau 12 hours, read-out: AUCtau, mean ± SD",1710 ng·h/mL
same,Cmax,"15 mg, Part 2 Day 14 steady state, 15 mg BID, read-out: Cmax, mean ± SD",284 ng/mL
same,AUC(0-t),"20 mg, 20 mg BID, read-out: AUC0-24 h (corresponding to AUC0-12 h*2)",15 µM·h
same,Cmax,"20 mg, 20 mg BID, read-out: Mean observed Cmax",1220 nM
same,AUC(0-t),"20 mg, 20 mg QD, MAD study, read-out: Mean observed AUC0-24 at steady state",7.35 µM·h
same,Cmax,"20 mg, Part 1a single 20 mg fasted, read-out: Cmax, mean",245 ng/mL
same,Cmax,"20 mg, Part 2 Day 1, 20 mg QD, fasted, read-out: Cmax, mean ± SD",245 ± 49.5 ng/mL
same,AUC,"20 mg, Part 2 Day 1, 20 mg QD, tau 24 hours, read-out: AUCtau, mean ± SD",1910 ± 429 ng·h/mL
same,AUC,"20 mg, Part 2 Day 14 steady state, 20 mg BID, tau 12 hours, read-out: AUCtau, mean ± SD",2220 ± 574 ng·h/mL
same,Cmax,"20 mg, Part 2 Day 14 steady state, 20 mg BID, read-out: Cmax, mean ± SD",359 ± 71.6 ng/mL
same,Cmax,"20 mg, Part 2 Day 14 steady state, 20 mg QD, read-out: Cmax, mean ± SD",255 ± 58 ng/mL
same,AUC,"30 mg, Part 1a single 30 mg fasted, read-out: AUC, mean",2570 ng·h/mL
same,AUC(0-t),"30 mg, Part 1a single 30 mg fasted, read-out: AUClast, mean",2540 ng·h/mL
same,Cmax,"30 mg, Part 1a single 30 mg fasted, read-out: Cmax, mean",439 ng/mL
same,AUC,"40 mg, Part 1a single 40 mg fasted, read-out: AUC, mean",5460 ng·h/mL
same,AUC(0-t),"40 mg, Part 1a single 40 mg fasted, read-out: AUClast, mean",5390 ng·h/mL
same,Cmax,"40 mg, Part 1a single 40 mg fasted, read-out: Cmax, mean",576 ng/mL
same,AUC,"40 mg, Part 1b single 40 mg fed, read-out: AUC, mean",5060 ng·h/mL
same,AUC(0-t),"40 mg, Part 1b single 40 mg fed, read-out: AUClast, mean",4100 ng·h/mL
same,Cmax,"40 mg, Part 1b single 40 mg fed, read-out: Cmax, mean",381 ng/mL
same,Tmax,"Part 1a, single 10 to 40 mg, fasted, read-out: Median tmax across doses",1 to 1.5 h
same,Tmax,"Part 2, single or repeated administration, fasted, read-out: Median Tmax across dose levels",1 to 2 h
same,Vd/F,Part 1a single 40 mg fasted,71.7 L
same,Vd/F,Part 1b single 10 mg fed,86 L
